From patent US7371555B2, “Polypeptides having α-H-α-amino acid amide racemase activity and nucleic acids encoding the same” (DSM IP Assets B.V., priority 2002, dated 2008)

How the values were obtained:
[1] = tested on: CFE from E. coli DH10B/pOa(1)PLV49B10 combined with the L-aminopeptidase from Pseudomonas putida ATCC 12633; test: Racemase activity test with DL-2-amino-5-[1,3]dioxolan-2-yl-pentanoic acid amide, CFE combined with L-aminopeptidase (Example 12); format: biochemical, Ochrobactrum anthropi IA; Pseudomonas putida ATCC 12633
Protocol: (§1) A reaction mixture of 10 ml (total volume including enzyme preparations) was prepared containing 50 mM HEPES-NaOH, pH 8.0, 20 μM pyridoxal-5-phosphate, 0.4 mg/ml BSA, 1 mM dithiothreitol, and 75 mM of DL-2-aminobutyric acid amide. Reaction was started by the addition of 0.4 ml of the thawed CFE of E. coli DH10B/pOa(1)PLV49B10 and 0.17 ml of a solution containing L-aminopeptidase from P. putida ATCC 12633. The reaction mixture was incubated at 37° C. for 18 h. At certain time intervals samples of 1 ml were taken and transferred to vials containing 1 ml of MeOH to stop the reaction. Analysis of these samples to determine the concentrations L- and D-2-aminobutyric acid and L- and D-2-aminobutyric acid amide was done by HPLC according to the protocol of Example 11.
In a very similar set-up, the combined activity of the α-H-α-amino acid amide racemase from O. anthropi IA and the L-aminopeptidase from P. putida ATCC 12633 was determined towards the more complex substrate DL-2-amino-5-[1,3]dioxolan-2-yl-pentanoic acid amide. The molecular structure of this amide can be found in the substrate table in Example 8. In this experiment 1 ml of the thawed CFE from E. coli DH10B/pOa(1)PLV49B10 was used together with 1 ml of a solution containing L-aminopeptidase from P. putida ATCC 12633. Reaction proceeded for 120 hours. Analysis of these samples to determine the concentrations L- and D-2-amino-5-[1,3]dioxolan-2-yl-pentanoic acid and L- and D-2-amino-5-[1,3]dioxolan-2-yl-pentanoic acid amide was done by HPLC according to the following protocol. • column: Crownether Cr(−) (150 mm×4.0 mm ID) • eluent: Perchloric acid in water, pH=1.0 • flow: 1.2 ml/min. • column temp.: 18° C. • inj. volume: 20 μl • detection: fluorescence detection after post-column reaction with o-phthalaldehyde and 2-mercaptoethanol in 0.4 M borate buffer. (wavelength ex=338 nm and em>420 nm)

[2] = tested on: E. coli DH10B/pOA(1)PLV49B10 cells containing the α-H-α-amino acid amide racemase gene from Ochrobactrum anthropi IA; test: Racemase activity test with DL-leucine amide and whole E. coli cells (Example 6); format: cell-based; conditions: Strain A
Protocol: To determine the activity of E. coli/pOA(1)PLV49B10 and the E. coli control, the above-mentioned cell pellets were thawed and resuspended to a total volume of 1 ml with 50 mM HEPES-NaOH buffer, pH 7.7. Then, reaction mixtures of 10 ml each were prepared containing 50 mM HEPES-NaOH buffer (pH 7.7), 10 μM pyridoxal-5-phosphate (PLP), 2.5 wt % of D-leucine amide, if applicable 20 mM of EDTA to suppress the E. coli amidase activity, and 0.5 ml of the E. coli/pOA(1)PLV49B10 and E. coli DH10B/pZErO-GFPuv-wrong-orientation cell suspensions or water (for chemical blanks). Reactions were started by the addition of the cells. Reaction mixtures were incubated at 30° C. and 175 rpm. Directly after addition of the cells (t=0 hours) and after 27 and 43 hours samples were taken in which the reaction was stopped by removal of the cells via centrifugation followed by 0.22 μM filtration. Finally, the filtered samples were stored at −20° C. until analysis by chiral HPLC as described below: • column: Sumichiral OA5000 from Sumika (150×4.6 mm I.D., 5μ)+guard column • eluent: 85 v/v % 2 mM CuSO4+15 v/v % methanol • flow: 1.0 ml/min. • column temp.: 40° C. • inj. volume: 5 μl • detection: fluorescence detection after post-column reaction with o-phthalaldehyde and 2-mercaptoethanol (wavelength ex=338 nm and em>420 nm)
The E. coli DH10B/pOA(1)PLV49B10 and E. coli DH10B/pZErO-GFPuv-wrong-orientation cell suspensions from Example 5 (Preparation of the cells) were used. To determine their activity towards racemic DL-leucine amide, identical reaction mixtures were prepared as in Example 5, except that 2.5 wt % of DL-leucine amide was used, EDTA was omitted in all reactions, and the reactions were started with […] of the cell suspensions. Samples were taken directly after the start of the reactions (t=0 hours) and after 8 and 24 hours.

[3] = tested on: CFE from E. coli DH10B/pOa(1)PLV49B10 containing the α-H-α-amino acid amide racemase from O. anthropi IA; test: Racemase activity test with DL-2-aminobutyric acid amide and CFE from E. coli DH10B/pOa(1)PLV49B10 (Example 10); format: biochemical, Ochrobactrum anthropi IA; conditions: Strain A; for Conversion: conversion to the L-acid
Protocol: Also in this case, E. coli TOP10/pBAD/Myc-HisC was treated in exactly the same way to serve as negative control.
To determine the activity of the CFE from E. coli DH10B/pOa(1)PLV49B10 and E. coli TOP10/pBAD/Myc-HisC, reaction mixtures of 10 ml each were prepared containing 50 mM HEPES-NaOH, pH 8.0, 20 μM pyridoxal-5-phosphate, 0.4 mg/ml BSA, 1 mM dithiothreitol, and 75 mM of DL-2-aminobutyric acid amide. Reactions were started by the addition of 1 ml of the thawed CFE of E. coli DH10B/pOa(1)PLV49B10 or E. coli TOP10/pBAD/Myc-HisC (blank) and were incubated at 37° C. for 21.5 h. At regular time intervals samples of 1 ml were taken and transferred to vials containing 1 ml of MeOH to stop the reaction. Analysis of these samples to determine the concentrations L- and D-2-aminobutyric acid and L- and D-2-aminobutyric acid amide was done by HPLC according to the following protocol. • column: Sumichiral OA5000 from Sumika (150×4.6 mm I.D., 5μ)+guard column • eluent: 4 mM CuSO4 in water • flow: 1 ml/min. • column temp.: 10° C. • inj. volume: 6 μl • detection: fluorescence detection after post-column reaction with o-phthalaldehyde and 2-mercaptoethanol in 0.4 M borate buffer with addition of EDTA (wavelength ex=338 nm and em>420 nm)

[4] = tested on: CFE from E. coli DH10B/pOa(1)PLV49B10 combined with the L-aminopeptidase from Pseudomonas putida ATCC 12633; test: Racemase activity test with DL-2-aminobutyric acid amide, CFE combined with L-aminopeptidase (Example 11); format: biochemical, Ochrobactrum anthropi IA; Pseudomonas putida ATCC 12633
Protocol: In this experiment, the E. coli DH10B/pOa(1)PLV49B10 CFE from Example 11 was used. It was combined with a preparation containing the L-aminopeptidase from P. putida ATCC 12633. This is the same L-enantioselective enzyme as was used as L-aminopeptidase help solution in the screening of the O. anthropi IA and A. nicotianae NCIMB 41126 gene libraries (Examples 3 and 3A).
as §1

[5] = tested on: lyophilized O. anthropi IA cells; test: α-H-α-amino acid amide racemase activity of lyophilized O. anthropi IA cells; format: biochemical, Ochrobactrum anthropi IA; conditions: control experiment
Protocol: O. anthropi IA cells were cultivated in Medium A containing DL-α-amino-ε-caprolactam (2 g/l) as sole nitrogen source. After incubation at 28° C. and 200 rpm for three days (OD620 nm=4.7), cells were harvested by centrifugation, washed in 20 mM HEPES-NaOH buffer of pH 7.7 and lyophilized.
The assay mixture consisted of 10 mM HEPES-NaOH buffer (pH 7.7) containing toluene (2,5 v/v %), pyridoxal-5-phosphate (20 μM), D- or L-leucine amide (2.5 m %) and in some cases EDTA (20 mM). Per assay 150 mg of lyophilized cells were used. Chemical blanks (with the assay mixture without the O. anthropi IA cells) were used as a negative control. All reaction mixtures (including the blanks) were incubated for approximately 72 hours at 40° C. before the reaction was stopped by the addition of 9 volumes of 1 M H3PO4. Finally, the reaction mixtures were analyzed by HPLC to determine the concentrations of D- and L-leucine amide and of D- and L-leucine. o-Phthaldehyde in combination with D-3-mercapto-2-methylpropionic acid was used in this HPLC method as a chiral reagent for the enantioseparation of these amino compounds (Duchateau, et al., J. Chromatogr. (1992) 623:237-245).
In a number of reactions EDTA was added to inhibit L- and/or D-specific amidase(s) present in the O. anthropi IA cells.
Without EDTA, amidases convert the substrate and/or product α-H-α-amino acid amides into α-H-α-amino acids thereby preventing direct detection of the other α-H-α-amino acid amide enantiomer as racemization product. […] Formation of L-leucine from D-leucine amide could not be detected in the chemical blank.

NC(=O)C(N)CCCC1OCCO1 (racemic) [DL-2-amino-5-[1,3]dioxolan-2-yl-pentanoic acid amide]
Conversion ([1]; incubation time 0 h): 5.6%
D-Abu ([1]; incubation time 0 h): 0.0 mM
D-Abu amide ([1]; incubation time 0 h): 36.6 mM
L-Abu ([1]; incubation time 0 h): 4.3 mM
L-Abu amide ([1]; incubation time 0 h): 36.5 mM
Conversion ([1]; incubation time 3.6 h): 49.5%
D-Abu ([1]; incubation time 3.6 h): 0.0 mM
D-Abu amide ([1]; incubation time 3.6 h): 35.7 mM
L-Abu ([1]; incubation time 3.6 h): 37.6 mM
L-Abu amide ([1]; incubation time 3.6 h): 2.7 mM
Conversion ([1]; incubation time 22.1 h): 56.6%
D-Abu ([1]; incubation time 22.1 h): 0.1 mM
D-Abu amide ([1]; incubation time 22.1 h): 29.9 mM
L-Abu ([1]; incubation time 22.1 h): 40.3 mM
L-Abu amide ([1]; incubation time 22.1 h): 1.0 mM
Conversion ([1]; incubation time 53.2 h): 61.1%
D-Abu ([1]; incubation time 53.2 h): 0.1 mM
D-Abu amide ([1]; incubation time 53.2 h): 27.4 mM
L-Abu ([1]; incubation time 53.2 h): 43.5 mM
L-Abu amide ([1]; incubation time 53.2 h): 0.1 mM
D-Abu ([1]; incubation time 120.2 h): 0.4 mM
D-Abu amide ([1]; incubation time 120.2 h): 23.7 mM
L-Abu ([1]; incubation time 120.2 h): 46.0 mM
L-Abu amide ([1]; incubation time 120.2 h): 0.1 mM

CC(C)CC(N)C(N)=O (racemic) [DL-leucine amide]
D-leucine ([2]; incubation time 0 h): 0.001 wt %
D-leucine amide ([2]; incubation time 0 h): 1.19 wt %
L-leucine ([2]; incubation time 0 h): 0.003 wt %
L-leucine amide ([2]; incubation time 0 h): 1.25 wt %
D-leucine ([2]; incubation time 8 h): 0.004 wt %
D-leucine amide ([2]; incubation time 8 h): 1.24 wt %
L-leucine ([2]; incubation time 8 h): 1.45 wt %
L-leucine amide ([2]; incubation time 8 h): 0.33 wt %
D-leucine ([2]; incubation time 24 h): 0.028 wt %
D-leucine amide ([2]; incubation time 24 h): 0.43 wt %
L-leucine ([2]; incubation time 24 h): 2.25 wt %
L-leucine amide ([2]; incubation time 24 h): 0.14 wt %

CCC(N)C(N)=O (racemic) [DL-2-aminobutyric acid (Abu) amide, DL-2-aminobutyric acid amide]
D-Abu ([3]; incubation time 0 h): 0.0 mM
D-Abu amide ([3]; incubation time 0 h): 42.3 mM
L-Abu ([3]; incubation time 0 h): 1.4 mM
L-Abu amide ([3]; incubation time 0 h): 40.5 mM
Conversion ([3]; incubation time 0 h): 1.6%
D-Abu ([3]; incubation time 0.75 h): 0.0 mM
D-Abu amide ([3]; incubation time 0.75 h): 39.6 mM
L-Abu ([3]; incubation time 0.75 h): 12.3 mM
L-Abu amide ([3]; incubation time 0.75 h): 29.3 mM
Conversion ([3]; incubation time 0.75 h): 15.2%
D-Abu ([3]; incubation time 2 h): 0.0 mM
D-Abu amide ([3]; incubation time 2 h): 34.7 mM
L-Abu ([3]; incubation time 2 h): 29.1 mM
L-Abu amide ([3]; incubation time 2 h): 17.8 mM
Conversion ([3]; incubation time 2 h): 35.7%
D-Abu ([3]; incubation time 4.65 h): 0.1 mM
D-Abu amide ([3]; incubation time 4.65 h): 20.8 mM
L-Abu ([3]; incubation time 4.65 h): 52.3 mM
L-Abu amide ([3]; incubation time 4.65 h): 11.5 mM
Conversion ([3]; incubation time 4.65 h): 61.8%
D-Abu ([3]; incubation time 8.25 h): 0.5 mM
D-Abu amide ([3]; incubation time 8.25 h): 12.4 mM
L-Abu ([3]; incubation time 8.25 h): 64.9 mM
L-Abu amide ([3]; incubation time 8.25 h): 8.6 mM
Conversion ([3]; incubation time 8.25 h): 75.1%
D-Abu ([3]; incubation time 21.5 h): 1.4 mM
D-Abu amide ([3]; incubation time 21.5 h): 6.7 mM
L-Abu ([3]; incubation time 21.5 h): 71.7 mM
L-Abu amide ([3]; incubation time 21.5 h): 5.8 mM
Conversion ([3]; incubation time 21.5 h): 83.9%
Conversion ([4]; incubation time 0 h): 0.7%
D-Abu ([4]; incubation time 0 h): 0.0 mM
D-Abu amide ([4]; incubation time 0 h): 36.2 mM
L-Abu ([4]; incubation time 0 h): 0.5 mM
L-Abu amide ([4]; incubation time 0 h): 34.1 mM
Conversion ([4]; incubation time 0.5 h): 17.1%
D-Abu ([4]; incubation time 0.5 h): 0.0 mM
D-Abu amide ([4]; incubation time 0.5 h): 34.6 mM
L-Abu ([4]; incubation time 0.5 h): 11.7 mM
L-Abu amide ([4]; incubation time 0.5 h): 22.2 mM
Conversion ([4]; incubation time 1.0 h): 42.4%
D-Abu ([4]; incubation time 1.0 h): 0.1 mM
D-Abu amide ([4]; incubation time 1.0 h): 36.4 mM
L-Abu ([4]; incubation time 1.0 h): 32.2 mM
L-Abu amide ([4]; incubation time 1.0 h): 7.3 mM
Conversion ([4]; incubation time 1.5 h): 51.9%
D-Abu ([4]; incubation time 1.5 h): 0.0 mM
D-Abu amide ([4]; incubation time 1.5 h): 33.0 mM
L-Abu ([4]; incubation time 1.5 h): 38.5 mM
L-Abu amide ([4]; incubation time 1.5 h): 2.7 mM
Conversion ([4]; incubation time 2.0 h): 56.7%
D-Abu ([4]; incubation time 2.0 h): 0.0 mM
D-Abu amide ([4]; incubation time 2.0 h): 30.4 mM
L-Abu ([4]; incubation time 2.0 h): 41.9 mM
L-Abu amide ([4]; incubation time 2.0 h): 1.7 mM
Conversion ([4]; incubation time 18 h): 97.3%
D-Abu ([4]; incubation time 18 h): 1.6 mM
D-Abu amide ([4]; incubation time 18 h): 0.4 mM
L-Abu ([4]; incubation time 18 h): 70.8 mM
L-Abu amide ([4]; incubation time 18 h): 0.0 mM

CC(C)C[C@H](N)C(=O)O [leucine]
racemization of leucine [5]: did not racemize

CC[C@@H](N)C(N)=O [D-aminobutyric acid amide]
Conversion ([3]; incubation time 21.5 h): 85.4%
